Data on 26 compounds can be found in patent US9394263B2, “Substituted hetero-azepinones” (priority 2012, dated 2016).

The target in one test is BIR2 domain of XIAP (Homo sapiens (Human), UniProt P98170, C202A/C213G). As to the kind of experiment: TR-FRET assay for BIR2: inhibition of binding of XIAP BIR2 domain to Peptide A (SMAC-derived peptide).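 Also: percent inhibition measured across a concentration series of each compound, from which the IC50 was derived.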
For another test, the target named is BIR3 domain of XIAP (Homo sapiens (Human), UniProt P98170). In words: TR-FRET assay for BIR3: inhibition of binding of XIAP BIR3 domain to Peptide A (SMAC-derived peptide).
Chain of BIR3 domain of XIAP (P98170 241-356 with tags or gaps limits assumed): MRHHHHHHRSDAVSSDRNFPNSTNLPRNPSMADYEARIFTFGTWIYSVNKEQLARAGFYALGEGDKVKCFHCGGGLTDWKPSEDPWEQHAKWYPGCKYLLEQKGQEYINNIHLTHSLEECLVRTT

The structures appear in SMILES notation. Structures can show the parent of a compound that is named as a salt. Where two headings read alike, the source gives them in different places. Where only a bound is given, the exact number is not on record here.

Chain of BIR2 domain of XIAP (P98170 other isoform, or with tags, fused parts or gaps, stated change not applied): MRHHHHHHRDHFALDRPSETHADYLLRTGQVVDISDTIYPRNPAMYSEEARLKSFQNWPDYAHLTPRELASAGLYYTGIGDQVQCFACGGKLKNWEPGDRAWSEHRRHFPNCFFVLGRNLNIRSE
Procedure for BIR2 domain of XIAP: TR-FRET Assay for BIR2 and BIR3
The peptides were labeled with the fluorescent tags FITC or TAMRA and Kd values were determined by fluorescence polarization assay.
The peptide sequence was derivatized with biotin to provide [sequence]-(8-biotin)-OH 1:2 TFA as the substrate for the TR-FRET assay.
The XIAP protein sequence was obtained from the SWISS-PROT protein sequence database and the BIR2 and BIR3 domains were derived from that.
Percentage of inhibition at each concentration was determined to generate an IC50 value for each test compound.

As to `CN[C@@H](C)C(=O)N[C@H]1COc2ccccc2N(Cc2cc(=O)n(C)c3ccc(F)cc23)C1=O` [Example 61, (S)-N-((S)-5-((6-Fluoro-1-methyl-2-oxo-1,2-dihydroquinolin-4-yl)methyl)-4-oxo-2,3,4,5-tetrahydrobenzo[b][1,4]oxazepin-3-yl)-2-(methylamino)propanamide], at BIR2 domain of XIAP (read-out: BIR2 IC50), the IC50 stood at 686 nM.
As to `CN[C@@H](C)C(=O)N[C@@H]1C(=O)N(Cc2c(OC)ccc3cc(Br)ccc23)c2cc(C(F)(F)F)ccc2O[C@H]1C` [Example 43, (S)-N-[(6S,7S)-9-(6-Bromo-2-methoxy-naphthalen-1-ylmethyl)-6-methyl-8-oxo-2-trifluoromethyl-6,7,8,9-tetrahydro-5-oxa-9-aza-benzocyclohepten-7-yl]-2-methylamino-propionamide trifluoroacetate], at BIR2 domain of XIAP (read-out: BIR2 IC50), the IC50 was 92 nM.
The same measure, in the same setting: for `CN[C@@H](C)C(=O)N[C@H]1COc2ccccc2N(Cc2c(OC)ccc3ccccc23)C1=O` [Example 29b] the value was 198 nM; for `CN[C@@H](C)C(=O)N[C@H]1COc2ccc(C(F)(F)F)cc2N(Cc2c(OC)ccc3cc(Br)ccc23)C1=O` [Example 42, (S)-N-((S)-5-((6-Bromo-2-methoxynaphthalen-1-yl)methyl)-4-oxo-7-(trifluoromethyl)-2,3,4,5-tetrahydrobenzo[b][1,4]oxazepin-3-yl)-2-(methylamino)propanamide trifluoroacetate], 57 nM.
Same read-out and setting: under `CN[C@@H](C)C(=O)N[C@H]1COc2c(C(=O)O)cccc2N(Cc2c(OC)ccc3cc(C(=O)O)ccc23)C1=O` [Example 52, (S)-5-((6-Carboxy-2-methoxynaphthalen-1-yl)methyl)-3-((S)-2-(methylamino)propanamido)-4-oxo-2,3,4,5-tetrahydrobenzo[b][1,4]oxazepine-9-carboxylic acid trifluoroacetate] stands 59 nM.
The same measure, in the same setting: for `CN[C@@H](C)C(=O)N[C@@H]1C(=O)N(Cc2c(OC)ccc3cc(Br)ccc23)c2ccc(C)cc2O[C@H]1C` [Example 39, (S)-N-((2S,3S)-5-((6-Bromo-2-methoxynaphthalen-1-yl)methyl)-2,8-dimethyl-4-oxo-2,3,4,5-tetrahydrobenzo[b][1,4]oxazepin-3-yl)-2-(methylamino)propanamide trifluoroacetate] the value was 54 nM; for `CN[C@@H](C)C(=O)N[C@H]1COc2ccccc2N(Cc2c(OC)ccc3cc(C(=O)OC)ccc23)C1=O` [Example 31, Methyl 6-methoxy-5-(((S)-3-((S)-2-(methylamino)propanamido)-4-oxo-3,4-dihydrobenzo[b][1,4]oxazepin-5(2H)-yl)methyl)-2-naphthoate trifluoroacetate], 189 nM; for `CN[C@@H](C)C(=O)N[C@H]1COc2ccccc2N(Cc2c(OC)ccc3cc(C(=O)O)ccc23)C1=O` [Example 32, 6-Methoxy-5-(((S)-3-((S)-2-(methylamino)propanamido)-4-oxo-3,4-dihydrobenzo[b][1,4]oxazepin-5(2H)-yl)methyl)-2-naphthoic acid trifluoroacetate], 55 nM.
As for `CCN[C@@H](C)C(=O)N[C@@H]1C(=O)N(Cc2c(C#N)n(-c3ccccc3C#N)c3ccccc23)c2ccccc2O[C@H]1C` [Example 77, (S)-N-((2S,3S)-5-((2-Cyano-1-(2-cyanophenyl)-1H-indol-3-yl)methyl)-2-methyl-4-oxo-2,3,4,5-tetrahydrobenzo[b][1,4]oxazepin-3-yl)-2-(ethylamino)propanamide], the IC50 on BIR3 domain of XIAP (read-out: BIR3 IC50) is over 54800 nM; on BIR2 domain of XIAP (read-out: BIR2 IC50), 107 nM.
As to `CN[C@@H](C)C(=O)N[C@@H]1C(=O)N(Cc2c(OC)ccc3cc(Br)ccc23)c2ccccc2OC12CCOCC2` [Example 1g], the IC50 on BIR2 domain of XIAP turned out to be 65 nM.
`CN[C@@H](C)C(=O)N[C@H]1C(=O)N(Cc2c(OC)ccc3cc(Br)ccc23)c2ccccc2OC12CCOCC2` [Example 1f] displayed an IC50 on BIR2 domain of XIAP of 4360 nM.
On to `CC[C@H](NCCO)C(=O)N[C@H]1COc2ccccc2N(Cc2c(OC)ccc3cc(Br)ccc23)C1=O` [Example 83, (S)-N-((S)-5-((6-Bromo-2-methoxynaphthalen-1-yl)methyl)-4-oxo-2,3,4,5-tetrahydrobenzo[b][1,4]oxazepin-3-yl)-2-(2-hydroxyethylamino)butanamide trifluoroacetate], for which, at BIR2 domain of XIAP (read-out: BIR2 IC50), the half-inhibitory concentration (IC50) stood at 44 nM.
For the compound `CN[C@@H](C)C(=O)N[C@H]1COc2ccccc2N(Cc2nn(-c3ccccc3C#N)c3cc(Br)ccc23)C1=O` [Example 72, (S)-N-((S)-5-((6-Bromo-1-(2-cyanophenyl)-1H-indazol-3-yl)methyl)-4-oxo-2,3,4,5-tetrahydrobenzo[b][1,4]oxazepin-3-yl)-2-(methylamino)propanamide trifluoroacetate], the IC50 was over 54800 nM at BIR3 domain of XIAP (read-out: BIR3 IC50) and 281 nM on BIR2 domain of XIAP (read-out: BIR2 IC50).
`CN[C@@H](C)C(=O)N[C@H]1COc2c(C(=O)O)cccc2N(Cc2c(OC)ccc3cc(Br)ccc23)C1=O` [Example 48, (S)-5-((6-bromo-2-methoxynaphthalen-1-yl)methyl)-3-((S)-2-(methylamino)propanamido)-4-oxo-2,3,4,5-tetrahydrobenzo[b][1,4]oxazepine-9-carboxylic acid trifluoroacetate]: the IC50 at BIR2 domain of XIAP (read-out: BIR2 IC50) turned out to be 89 nM.
Take `CN[C@@H](C)C(=O)N[C@H]1COc2c(C(=O)N3CCN(CCO)CC3)cccc2N(Cc2ccc(Br)c3ccccc23)C1=O` [Example 55, (S)-N-((S)-5-((4-Bromonaphthalen-1-yl)methyl)-9-(4-(2-hydroxyethyl)piperazine-1-carbonyl)-4-oxo-2,3,4,5-tetrahydrobenzo[b][1,4]oxazepin-3-yl)-2-(methylamino)propanamide]: the half-inhibitory concentration (IC50) on BIR2 domain of XIAP (read-out: BIR2 IC50) was 957 nM.
`CN[C@@H](C)C(=O)N[C@H]1COc2c(cccc2C(F)(F)F)N(Cc2noc3ccccc23)C1=O` [Example 90, (S)-N-((S)-5-(Benzo[d]isoxazol-3-ylmethyl)-4-oxo-9-(trifluoromethyl)-2,3,4,5-tetrahydrobenzo[b][1,4]oxazepin-3-yl)-2-(methylamino)propanamide hydrochloride]: the IC50 on BIR2 domain of XIAP (read-out: BIR2 IC50) was 490 nM.
The same measure, in the same setting: under `CN[C@@H](C)C(=O)N[C@H]1COc2c(C(=O)O)cccc2N(Cc2ccc(Br)c3ccccc23)C1=O` [Example 54, (S)-5-((4-Bromonaphthalen-1-yl)methyl)-3-((S)-2-(methylamino)propanamido)-4-oxo-2,3,4,5-tetrahydrobenzo[b][1,4]oxazepine-9-carboxylic acid trifluoroacetate] stands 649 nM.
Turning to `CC[C@H](NC)C(=O)N[C@@H]1C(=O)N(Cc2c(OC)ccc3cc(Br)ccc23)c2ccc(F)cc2OC12CCOCC2` [Example 16, (2S)-N-(5-((6-Bromo-2-methoxynaphthalen-1-yl)methyl)-(3S)-8-fluoro-4-oxo-2′,3′,5′,6′-tetrahydro-3H-spiro[benzo[b][1,4]oxazepine-2,4′-pyran]-3-yl)-2-(methylamino)butanamide hydrochloride], the IC50 at BIR3 domain of XIAP (read-out: BIR3 IC50) was over 50000 nM.
For the compound `CN[C@@H](C)C(=O)N[C@H]1COc2ccccc2N(Cc2cccc(Cl)c2)C1=O` [Example 46, (S)-N-((S)-5-(3-Chlorobenzyl)-4-oxo-2,3,4,5-tetrahydrobenzo[13,][1,4]oxazepin-3-yl)-2-(methylamino)propanamide], the IC50 on BIR2 domain of XIAP (read-out: BIR2 IC50) was 3110 nM.
For `CN[C@@H](C)C(=O)N[C@H]1COc2c(C(=O)NCc3ccc(C(=O)OC)cc3)cccc2N(Cc2c(OC)ccc3cc(Br)ccc23)C1=O` [Example 51, 4-({[(S)-9-(6-Bromo-2-methoxy-naphthalen-1-ylmethyl)-7-((S)-2-methylamino-propionylamino)-8-oxo-6,7,8,9-tetrahydro-5-oxa-9-aza-benzocycloheptene-4-carbonyl]-amino}-methyl)-benzoic acid methyl ester], the half-maximal inhibitory concentration (IC50) at BIR2 domain of XIAP (read-out: BIR2 IC50) worked out at 410 nM.
With `[2H]C([2H])([2H])N[C@@H](C)C(=O)N[C@@H]1C(=O)N(Cc2c(OC)ccc3cc(Br)ccc23)c2ccccc2OC12CCOCC2` [Example 19, (2S)-N-(5-((6-Bromo-2-methoxynaphthalen-1-yl)methyl)-(3S)-4-oxo-2′,3′,5′,6′-tetrahydro-3H-spiro[benzo[b][1,4]oxazepine-2,4′-pyran]-3-yl)-2-(methyl-d3-amino)propanamide hydrochloride], the IC50 at BIR3 domain of XIAP was 22900 nM.
`CN[C@@H](C)C(=O)N[C@@H]1C(=O)N(Cc2nn(-c3ccc(C(=O)O)cc3C#N)c3ccccc23)c2ccccc2O[C@H]1C` [Example 80, 3-Cyano-4-(3-(((2S,3S)-2-methyl-3-((S)-2-(methylamino)propanamido)-4-oxo-3,4-dihydrobenzo[b][1,4]oxazepin-5(2H)-yl)methyl)-1H-indazol-1-yl)benzoic acid trifluoroacetate] came in with an IC50 on BIR2 domain of XIAP of 118 nM.
On the same count and under the same terms, under `CN[C@@H](C)C(=O)N[C@@H]1C(=O)N(Cc2c(OC)cnc3ccccc23)c2ccccc2OC12CCOCC2` [Example 1r] stands 141 nM.
Regarding `CN[C@@H](C)C(=O)N[C@H]1CSc2c(NC(=O)COCCOC)cccc2N(Cc2cccc3ccccc23)C1=O` [Example 22, (S)-N-{(R)-9-[2-(2-Methoxy-ethoxy)-acetylamino]-5-naphthalen-1-ylmethyl-4-oxo-2,3,4,5-tetrahydro-benzo[b][1,4]thiazepin-3-yl}-2-methylamino-propionamide hydrochloride], the 50% inhibitory concentration (IC50) at BIR3 domain of XIAP (read-out: BIR3 IC50) was over 54800 nM.
On to `CN[C@@H](C)C(=O)N[C@H]1COc2c(C(=O)NCCC(=O)O)cccc2N(Cc2c(OC)ccc3cc(Br)ccc23)C1=O` [Example 50, 3-{[(S)-9-(6-Bromo-2-methoxy-naphthalen-1-ylmethyl)-74S)-2-methylamino-propionylamino)-8-oxo-6,7,8,9-tetrahydro-5-oxa-9-aza-benzocycloheptene-4-carbonyl]-amino}-propionic acid trifluoroacetate], for which, on BIR2 domain of XIAP (read-out: BIR2 IC50), the IC50 was determined as 134 nM.
The same measure, in the same setting: for `CN[C@@H](C)C(=O)N[C@H]1COc2c(C(=O)N3CCN(CCCO)CC3)cccc2N(Cc2ccc(Br)c3ccccc23)C1=O` [Example 56, (S)-N-((S)-5-((4-Bromonaphthalen-1-yl)methyl)-9-(4-(3-hydroxypropyl)piperazine-1-carbonyl)-4-oxo-2,3,4,5-tetrahydrobenzo[b][1,4]oxazepin-3-yl)-2-(methylamino)propanamide] the value was 1600 nM.
